Reference: PubChem BioAssay (NCI)
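Five concentrations, 48 hours, 96-well plates. GI50 is the concentration that inhibits growth by half. TGI: total growth inhibition.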

What was measured:
Assay in all cases: growth of human tumour cells (NCI), 48 h
PC-3 prostate = system: PC-3 prostate
RXF 393 renal = system: RXF 393 renal
K-562 leukemia = system: K-562 leukemia
UO-31 renal = system: UO-31 renal
A498 renal = system: A498 renal
UACC-62 melanoma = system: UACC-62 melanoma
SF-295 CNS = system: SF-295 CNS
HOP-92 NSCLC = system: HOP-92 NSCLC
HCT-116 colon = system: HCT-116 colon
SN12C renal = system: SN12C renal
SK-OV-3 ovarian = system: SK-OV-3 ovarian
NCI-H226 lung = system: NCI-H226 lung
MDA-MB-231 breast = system: MDA-MB-231 breast
OVCAR-5 ovarian = system: OVCAR-5 ovarian
NCI/ADR-RES ovarian = system: NCI/ADR-RES ovarian
SF-539 CNS = system: SF-539 CNS
HOP-62 NSCLC = system: HOP-62 NSCLC
HCC-2998 colon = system: HCC-2998 colon
KM12 colon = system: KM12 colon
BT-549 breast = system: BT-549 breast
CAKI-1 renal = system: CAKI-1 renal
M14 melanoma = system: M14 melanoma
UACC-257 melanoma = system: UACC-257 melanoma
OVCAR-4 ovarian = system: OVCAR-4 ovarian
EKVX NSCLC = system: EKVX NSCLC
SNB-19 CNS = system: SNB-19 CNS
HS 578T breast = system: HS 578T breast
NCI-H460 lung = system: NCI-H460 lung
SK-MEL-28 melanoma = system: SK-MEL-28 melanoma
MOLT-4 leukemia = system: MOLT-4 leukemia
LOX IMVI melanoma = system: LOX IMVI melanoma
DU-145 prostate = system: DU-145 prostate
TK-10 renal = system: TK-10 renal
NCI-H23 lung = system: NCI-H23 lung
NCI-H522 lung = system: NCI-H522 lung
MDA-MB-435 = system: MDA-MB-435
RPMI-8226 leukemia = system: RPMI-8226 leukemia
ACHN renal = system: ACHN renal
OVCAR-8 ovarian = system: OVCAR-8 ovarian
HT29 colon = system: HT29 colon
SR leukemia = system: SR leukemia
U251 CNS = system: U251 CNS
SW-620 colon = system: SW-620 colon
A549 NSCLC = system: A549 NSCLC
IGROV1 ovarian = system: IGROV1 ovarian
SK-MEL-5 melanoma = system: SK-MEL-5 melanoma
SK-MEL-2 melanoma = system: SK-MEL-2 melanoma
OVCAR-3 ovarian = system: OVCAR-3 ovarian
SNB-75 CNS = system: SNB-75 CNS
HCT-15 colon = system: HCT-15 colon
T-47D breast = system: T-47D breast
MALME-3M melanoma = system: MALME-3M melanoma
HL-60(TB) leukemia = system: HL-60(TB) leukemia
SF-268 CNS = system: SF-268 CNS
MCF7 breast = system: MCF7 breast

For `COc1ccc2[nH]c(O)c(/C=c3/cc4c(c(-c5ccc(F)cc5)n3)=Nc3ccccc3-4)c2c1`, the GI50 (PC-3 prostate) was 8.26 µM, the TGI (PC-3 prostate) was greater than 100 µM and the GI50 (RXF 393 renal) was 2.25 µM. It also gave a TGI (RXF 393 renal) of 7.53 µM, a GI50 (K-562 leukemia) of 2.45 µM and a TGI (K-562 leukemia) of 7.95 µM. For the same molecule, the GI50 (UO-31 renal) was 15.5 µM, the TGI (UO-31 renal) was 30.3 µM and the GI50 (A498 renal) was 13.2 µM. It also gave a TGI (A498 renal) of 34.3 µM, a GI50 (UACC-62 melanoma) of 1.54 µM and a TGI (UACC-62 melanoma) of 3.2 µM. For the same molecule, the GI50 (SF-295 CNS) was 10.5 µM, the TGI (SF-295 CNS) was 31.2 µM and the GI50 (HOP-92 NSCLC) was 13.6 µM. For the same molecule, the TGI (HOP-92 NSCLC) was 41.3 µM, the GI50 (HCT-116 colon) was 1.67 µM and the TGI (HCT-116 colon) was 3.04 µM. The GI50 (SN12C renal) was 4.19 µM, the TGI (SN12C renal) was 18.8 µM and the GI50 (SK-OV-3 ovarian) was 17.2 µM. It also gave a TGI (SK-OV-3 ovarian) of 33.8 µM, a GI50 (NCI-H226 lung) of 34.2 µM and a TGI (NCI-H226 lung) greater than 100 µM. It also gave a GI50 (MDA-MB-231 breast) of 1.2 µM, a TGI (MDA-MB-231 breast) of 3.87 µM and a GI50 (OVCAR-5 ovarian) of 13.8 µM. The TGI (OVCAR-5 ovarian) was 35.6 µM, the GI50 (NCI/ADR-RES ovarian) was 2 µM and the TGI (NCI/ADR-RES ovarian) was 5.63 µM. For the same molecule, the GI50 (SF-539 CNS) was 7.62 µM, the TGI (SF-539 CNS) was 20.6 µM and the GI50 (HOP-62 NSCLC) was 1.88 µM. The TGI (HOP-62 NSCLC) was 3.69 µM, the GI50 (HCC-2998 colon) was 3.3 µM and the TGI (HCC-2998 colon) was 12.6 µM. The GI50 (KM12 colon) was 1.78 µM, the TGI (KM12 colon) was 4.46 µM and the GI50 (BT-549 breast) was 1.8 µM. It also gave a TGI (BT-549 breast) of 3.57 µM, a GI50 (CAKI-1 renal) of 18.2 µM and a TGI (CAKI-1 renal) of 36.8 µM. The GI50 (M14 melanoma) was 1.98 µM, the TGI (M14 melanoma) was 3.85 µM and the GI50 (UACC-257 melanoma) was 6.77 µM. The TGI (UACC-257 melanoma) was 21 µM, the GI50 (OVCAR-4 ovarian) was 1.8 µM and the TGI (OVCAR-4 ovarian) was 4.12 µM. For the same molecule, the GI50 (EKVX NSCLC) was 23.2 µM, the TGI (EKVX NSCLC) was greater than 100 µM and the GI50 (SNB-19 CNS) was 3.6 µM. It also gave a TGI (SNB-19 CNS) greater than 100 µM, a GI50 (HS 578T breast) of 2.02 µM and a TGI (HS 578T breast) of 7.48 µM. For the same molecule, the GI50 (NCI-H460 lung) was 1.82 µM, the TGI (NCI-H460 lung) was 4.01 µM and the GI50 (SK-MEL-28 melanoma) was 1.92 µM. It also gave a TGI (SK-MEL-28 melanoma) of 4.58 µM, a GI50 (MOLT-4 leukemia) of 1.97 µM and a TGI (MOLT-4 leukemia) of 5.21 µM. It also gave a GI50 (LOX IMVI melanoma) of 1.64 µM, a TGI (LOX IMVI melanoma) of 3.2 µM and a GI50 (DU-145 prostate) of 2.97 µM. The TGI (DU-145 prostate) was 7.96 µM, the GI50 (TK-10 renal) was 2.71 µM and the TGI (TK-10 renal) was 5.32 µM. It also gave a GI50 (NCI-H23 lung) of 2.58 µM, a TGI (NCI-H23 lung) of 10.9 µM and a GI50 (NCI-H522 lung) of 1.86 µM. It also gave a TGI (NCI-H522 lung) of 5.19 µM, a GI50 (MDA-MB-435) of 2.05 µM and a TGI (MDA-MB-435) of 6.34 µM. It also gave a GI50 (RPMI-8226 leukemia) of 3.73 µM, a TGI (RPMI-8226 leukemia) of 32.9 µM and a GI50 (ACHN renal) of 10.3 µM. The TGI (ACHN renal) was 22.5 µM, the GI50 (OVCAR-8 ovarian) was 2 µM and the TGI (OVCAR-8 ovarian) was 5.01 µM. For the same molecule, the GI50 (HT29 colon) was 1.94 µM, the TGI (HT29 colon) was 3.85 µM and the GI50 (SR leukemia) was 1.07 µM. It also gave a TGI (SR leukemia) of 6.65 µM, a GI50 (U251 CNS) of 1.68 µM and a TGI (U251 CNS) of 3.26 µM. The GI50 (SW-620 colon) was 1.85 µM, the TGI (SW-620 colon) was 3.89 µM and the GI50 (A549 NSCLC) was 2.31 µM. For the same molecule, the TGI (A549 NSCLC) was 6.34 µM, the GI50 (IGROV1 ovarian) was 19.6 µM and the TGI (IGROV1 ovarian) was 48.8 µM. For the same molecule, the GI50 (SK-MEL-5 melanoma) was 3.47 µM, the TGI (SK-MEL-5 melanoma) was 15.8 µM and the GI50 (SK-MEL-2 melanoma) was 12.6 µM. The TGI (SK-MEL-2 melanoma) was 30.7 µM, the GI50 (OVCAR-3 ovarian) was 1.82 µM and the TGI (OVCAR-3 ovarian) was 3.24 µM. The GI50 (SNB-75 CNS) was 13 µM, the TGI (SNB-75 CNS) was 27.4 µM and the GI50 (HCT-15 colon) was 1.91 µM. The TGI (HCT-15 colon) was 4.35 µM, the GI50 (T-47D breast) was 2.06 µM and the TGI (T-47D breast) was 6.94 µM. For the same molecule, the GI50 (MALME-3M melanoma) was 2.4 µM, the TGI (MALME-3M melanoma) was 4.6 µM and the GI50 (HL-60(TB) leukemia) was 9.2 µM. For the same molecule, the TGI (HL-60(TB) leukemia) was greater than 100 µM, the GI50 (SF-268 CNS) was 5.43 µM and the TGI (SF-268 CNS) was 43.8 µM. It also gave a GI50 (MCF7 breast) of 1.36 µM and a TGI (MCF7 breast) of 3.32 µM.
